Source: patent publication US20190316085A1, “Methods Of T-Lymphocyte Expansion” (Cambridge Enterprise Limited, priority 2015, published 2019)

Assays:
human CD8^+ T cells = test: Experiments with human CD8+ T cells (CCR7, CD45RO flow cytometry); format: cell-based; conditions: 14 days; 600 μM S-2HG-octyl ester or 800 μM R-2HG-octyl ester versus vehicle
Description: Numbers in dot plots represent the percentage of cells present in the corresponding quadrant defined by CCR7 and CD45RO expression.
Human CD8^+ T cells were magnetically isolated from blood of healthy donors after gradient centrifugation. Incubation with microbeads conjugated to anti-human CD8 antibodies (Miltenyi 130-097-057) was followed by magnetic bead isolation on a MACS column. Purified human CD8^+ T cells were activated with αCD3 and αCD28 coated beads (Dynabeads, 111.61D) and expanded in the presence of recombinant human IL-2 (30 Ul/mL, Roche 11011456001).
Cells were stained and acquired on a Fortessa (BD Biosciences). The following fluorophores and fluorophore-conjugated antibodies were used: anti-CD62L (Biolegend, MEL-14), anti-CD44 (Biolegend, IM7), anti-CD8a (Biolegend, 53-6.7), anti-CD45.1 (Biolegend, A20), anti-CD45.2 (Biolegend, 104), anti-CD127 (Biolegend, A7R34), anti-KLRG1 (Biolegend, 2F1/KLRG1), anti-CD19 (Biolegend, 6D5), anti-Bcl-2 (Biolegend, BCL/10C4), Eomes (eBioscience, Danlimag), PD-1 (Biolegend, 29F.1A12), […], H-2Kb/SIINFEKL Pentamer-PE (Proimmune, F093-2A), CFSE (Life Technologies), LIVE/DEAD Violet (Life Technologies), PI-AnnexinV (Biolegend, 640928), anti-Bcl-xl-PE (Cell Signalling Technologies, 54H6). For staining of nuclear-located marker Eomes, the Transcription Factor Staining Buffer Set (eBioscience) was used, according to the manufacturer's instructions. For staining of intracellular cytokines, OT-I cells were re-stimulated with SIINFEKL peptide for 4 h with GolgiStop solution (BD). For ^1H-NMR experiments, CD8^+ T-lymphocytes were sorted from total splenocytes by immunostaining with anti-mouse CD8-AF647 (Biolegend) on a MoFlo (Beckman Coulter). Cells were then activated and cultured as described above. For staining of human T cells, CD8^+ T cells were incubated at 37 C for 30 minutes in the presence of anti-CCR7 antibody (eBioscience 12-1979-41), followed by staining with anti-CD45RO antibody (Biolegend, UCHL1).
For experiments with human CD8^+ T cells, cells were magnetically isolated, activated and plated at a concentration of 1×10^6 cells per mL in the presence of 30 UI/mL of recombinant human IL-2. […] On day 14, the surface expression of CCR7 and CD45RO on alive CD8^+ cells was measured by flow cytometry.

PDH-E1α = test: Immunoblot for phospho-PDH E1α (S232) in treated CD8+ T-lymphocytes; format: cell-based, mouse; conditions: 16 hours treatment
Description: FIG. 6A showns immunoblot analysis for HIF-1α, HDAC1, phospho-PDH E1α (S232) and total PDH-E1α in response to increasing concentrations of S-2HG-octyl ester or R-2HG-octyl ester, or 10 mM of the free acid forms of S-2HG or R-2HG for 16 hours. Cells were activated for 48 h with αCD3+αCD28 antibodies and then expanded for a further 4 days in the presence of IL-2 followed by treatment with the indicated concentration of S-2HG-octyl ester or R-2HG octyl ester, or 10 mM of the free acid forms of S-2HG or R-2HG for 16 hours. The arrow indicates HIF-1α protein.
Nuclear and cytosolic fractions were prepared from cells with the NE-PER kit (Thermo Scientific) and separated by SDS-PAGE. Proteins were transferred to PVDF membranes and then blocked in 5% milk prepared in phosphate-buffered saline (PBS) plus 0.05% Tween 20. Membranes were then incubated with primary antibodies overnight at 4° C. and horseradish peroxidase (HRP)-conjugated secondary antibodies for 1 h the next day. The following primary antibodies were used at a dilution of 1:1000: HIF1α (Novus), HIF2α (Novus), PDH-E1α (Abcam), PDH-E1α pS232 (Calbiochem), LaminB1 (Abcam), HDAC1 (Abcam), β-tubulin (Abcam), 4E-BP1 (Cell Signalling), phospho-4E-BP1 (S65) (Cell Signalling), phospho-4E-BP1 (T37/T46) (Cell Signalling) S6K (Cell Signalling), phopho-S6K (T389) (Cell Signalling), phopho-S6K (S371) (Cell Signalling).

[1] = tested on: OT-I CD8^+CD45.1^+ T-lymphocytes; test: In vivo memory recall experiment (adoptive transfer, vaccination); set-up: species or system mouse; conditions: for formation of memory cells after in vitro treatment of CD8+ T-cells: 0.5 mM, 7 days with IL-2 (FIGS. 13, 16, 17); for in vivo recall in response to vaccination: cells pre-treated 7 days with 0.5 mM, 37 days after adoptive transfer
Description: FIGS. 13B and 13C show representative flow cytometry plots of (B) CD8^+CD45.1^+ (C) or Kb/SIINFEKL Pentamer^+CD45.1^+ T-lymphocytes, in the spleens of vaccinated litter mate CD45.2 mice, 37 days after adoptive transfer of SIINFEKL-activated OT-I CD8^+CD45.1^+ T-lymphocytes, expanded with 0.5 mM S-2HG-octyl ester, 0.5 mM R-2HG-octyl ester or vehicle in the presence of IL-2 for 7 days. FIGS. 13D-F show (13D) the number of recovered CD45.1^+CD8^+ T-lymphocytes per spleen and (13E) % CD45.1^+ cells of the total CD8^+ population in each spleen or (13F) number of recovered Kb/SIINFEKL Pentamer^+CD45.1^+ T-lymphocytes per spleen 7 days after vaccination (37 days after the CD8+ T-cells were transferred into the mice). n=6 mice per group and error bars denote the s.e.m.
Total splenocytes from OT-1 CD45.1^+ mice were activated with 1000 nM SIINFEKL peptide in the presence of IL-2 and vehicle, 0.5 mM S-2HG-octyl ester or 0.5 mM R-2HG-octyl ester for 7 days. 1 million CD45^+CD8^+ cells were then injected intravenously into C57/B6 wild type CD45.2^+ host mice. 30 days later, host mice were vaccinated i.p. with SIINFEKL-loaded dendritic cells. 7 days later, spleens were harvested from host mice and the presence of CD45.1^+CD8^+ and Kb/SIINFEKL Pentamer+cells was determined by flow cytometry. Absolute numbers of cells were determined with the use of counting beads (CountBright, Life Technologies). Dendritic cells were prepared from bone marrow extracted from wild type C57/B6 mice. Bone marrow derived cells were cultured in non-TC treated petri dishes in RPMI-1640 medium containing 2 mM glutamine, 10% FBS, 25 mM HEPES, pH 7.2, 1% penicillin-streptomycin, 55 μM […] supplemented 20 ng/ml mGM-CSF (R&D Systems). After 8 days of culture, dendritic cells were activated with 1 μg/ml LPS (Sigma) for 24 h. The maturation of dendritic cells was confirmed by flow cytometry using the following markers: MHC class II-APC, CD11b-AF488, CD11c-AF488 and CD86-PE/Cy7 (Biolegend). Mature dendritic cells were then loaded with 2 μM SIINFEKL peptide at 37° C. for 1 hour. After peptide loading, dendritic cells were detached with 3 mM EDTA in PBS for 5-10 min at 37° C. and washed with PBS. For vaccination, 1 million peptide-loaded dendritic cells were injected i.p. per mouse in 100 μl PBS.

Row | SMILES | expression of CCR7 (human CD8^+ T cells) | expression of CD45RO (human CD8^+ T cells) | phosphorylation of PDH-E1a (PDH-E1α) | formation of memory cells after in vitro treatment of CD8+ T-cells [1] | in vivo recall in response to vaccination [1]
1 | CCCCCCCCOC(=O)[C@@H](O)CCC(=O)O [S-2HG-octyl ester, S-2HG octyl ester] | induced the expression | induced the expression | increased | induces the formation | enhanced in vivo recall
2 | CCCCCCCCOC(=O)[C@H](O)CCC(=O)O [R-2HG-octyl ester] | induced the expression | induced the expression | increased | induces the formation | enhanced in vivo recall
